pIC50: −log10 of the molar value.

Assay in all cases: MTT cytotoxicity assay, 48 h
What all share (type): cell-based

Experiment [1] deals with MCF7 human breast cancer cells. Particulars: MCF7, 48 h treatment, value (S.D.). The protocol:
(§1) First, the cytotoxicity of 1^2+ and 2^2+ toward several cancer cell lines was examined. The viability of cells exposed to their chloride salts was assessed by an MTT (3-(4,5-dimethylthiazol-2-yl)-2,5-diphenyltetrazolium bromide) assay, and the common chemotherapeutic agent cisplatin was employed as a positive control, Figure 3.
(§2) S2. Tissue Culture and Microscopy Methods
(§3) Cell media was purchased sterile from Sigma-Aldrich. A2780 human ovarian cancer cells and A2780CIS human ovarian cisplatin resistant cells were cultured in RPMI-1640 medium. MCF7 human breast cancer cells, T24 human bladder cancer cells and HEK293 human embryonic kidney cells were cultured in DMEM medium. All growth medium was supplemented with 10 % fetal bovine serum (FBS), 2 mM L-Glutamine, 100 IU mL-1 penicillin and 100 μg mL-1 streptomycin and sterile filtered before use. Cell cultures were grown by incubation at 37 ᵒC with 5 % CO2 and were frequently passaged with trypsin when confluency of around 80 % was reached.
(§4) All cells used were at passage numbers below 50.
(§5) S2b. Preparation of Compounds
(§6) Stock solutions of compounds were solubilized in 10 % PBS (Phosphate Buffer Saline) and 90 % media.
(§7) Solutions were then sterile filtered through a 0.22 μm filter prior to use.
(§8) S2c. Cytotoxicity (MTT Assay) and Determination of IC50 Values
(§9) MTT (3-(4,5-Dimethylthiazol2-yl)-2,5-diphenyltetrazolium bromide)) is a yellow tetrazolium salt that is reduced to formazan in metabolically active cells. Therefore, the purple coloured formazan can be dissolved and quantified through absorbance as a measure of cell viability. Cells were seeded in 48 well plates at a density of 5 x 10^4 cells per well and incubated for 24 hours prior to treatment. After 24 hours, compound (10 % PBS:
(§10) 90 % medium) was added over a concentration gradient from 0.1 to 100 μM with each concentration in triplicate. Some wells were treated with a concentration range of cisplatin as a positive control. Cells were incubated with the relevant concentrations of compound for 48 hours, after which the media was removed and replaced with MTT (0.5 mg mL-1 in serum-free medium) for a period of 30-45 minutes. The MTT solution was then carefully removed and the formazan eluted with isopropanol (130 μL per well). 100 μL from each well was transferred into a 96 well plate to enable quantification of cell viability using a plate reader measuring absorbance at 570 nm. An average absorbance was obtained for each concentration and the cell viability was then calculated as a percentage of the untreated negative control wells. A graph of cell viability against concentration was plotted and the IC50 (the concentration at which the cell viability is 50 %) determined by interpolation. The IC50 values are reported as an average of at least 3 independent biological replicates. […]
(§11) All plates were then incubated for another 24 hours following light treatment. Media was then removed from each well and replaced with MTT (0.5 mg mL-1 in serum-free medium) for 30-45 minutes. […]
(§12) The data was then plotted as a graph of cell viability against concentration to determine the IC50 values by interpolation before and after light treatment.

The subject of experiment [2] is T24 human bladder cancer cells. Particulars: T24, 48 h treatment, value (S.D.). As for the experimental part: as §1, §2, §3, §4, §5, §6, §7, §8, §9, §10, §11, §12
Experiment [3] has as its system A2780CIS human ovarian cisplatin resistant cells. To be noted: 48 h treatment, value (S.D.). The protocol: as §1, §2, §3, §4, §5, §6, §7, §8, §9, §10, §11, §12
For experiment [4], the system named is A2780 human ovarian cancer cells. Particulars: A2780, 48 h treatment, value (S.D.). The protocol: as §1, §2, §3, §4, §5, §6, §7, §8, §9, §10, §11, §12
Experiment [5] relates to HEK293 human embryonic kidney cells. Particulars: HEK293 noncancerous cells, 48 h treatment, value (S.D.). As for the experimental part:
as §1, §2, §3, §4, §5, §6, §7, §8, §9, §10, §11, §12

Regarding `N.N.[Cl][Pt][Cl]` [cisplatin], the pIC50 in experiment [1] is 4.59; in experiment [2], 5.52; in experiment [3] it was 4.72; in experiment [4], 5.89; in experiment [5] it was 5.30.

Source of the values: paper PMC11082890, “Phenazine Cations as Anticancer Theranostics” (Journal of the American Chemical Society, 2024).
